Among the data in PubChem BioAssay (NCI) are GI50 and TGI values, retold here.

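Values below derive from 48-hour exposures of cells grown in 96-well plates, with endpoints linearly interpolated between the two concentrations bracketing the appropriate inhibition level. At the GI50, growth is halved. The concentration for full growth arrest is given as TGI.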

Common to all, as to assay: inhibition of tumour cell growth, NCI panel, 48 h
Test [1] relates to HCT-15 colon.
In test [2] the test system is SR leukemia.
The test system of test [3] is CAKI-1 renal.
The test system of test [4] is DU-145 prostate.
In test [5] the test system is SF-539 CNS.
The subject of test [6] is RXF 393 renal.
Test [7] has as its system HCC-2998 colon.
In test [8] the test system is SK-OV-3 ovarian.
The test system of test [9] is HOP-62 NSCLC.
In test [10] the test system is UO-31 renal.

As for `C=C(C)[C@@H]1CC[C@]2(COC(=O)c3ccccc3C(=O)O)CC[C@]3(C)[C@H](CC[C@@H]4[C@@]5(C)CC[C@H](OC(=O)c6ccccc6C(=O)O)C(C)(C)[C@@H]5CC[C@]43C)[C@@H]12`, the GI50 was 31.3 µM in test [1]; 27.3 µM in test [2]; 18.6 µM in test [3]; 32.8 µM in [4]; 36.3 µM in test [5]; 22.6 µM in test [6]. In addition, the GI50 in test [7] is 74.3 µM; in test [8], 35.8 µM; in [9] it was 21.8 µM; in test [10], 32.1 µM. The TGI in test [1] was greater than 100 µM; in test [2], 74.1 µM; in test [3], 85.2 µM; in [4], greater than 100 µM; in [5], greater than 100 µM; in test [6], 77.3 µM. Besides, the TGI in test [7] is greater than 100 µM; in [8], greater than 100 µM; in test [9], 54.2 µM; in [10], greater than 100 µM.
Regarding `COc1cc2c3c(n(CCCN=[N+]=[N-])c(=O)c2cc1OC)-c1ccc(NC(C)=O)cc1C3=O`, the GI50 in [1] was greater than 50 µM; in test [2], 4.85 µM; in test [3], 8.39 µM; in test [4], greater than 50 µM; in test [5] it was greater than 50 µM; in test [6], greater than 50 µM. For the same compound, the GI50 in test [7] is greater than 50 µM; in [8], greater than 50 µM; in test [9] it was greater than 50 µM; in test [10], 46.2 µM. Also, the TGI in [1], in test [2], in test [3], in test [4], in test [5] and in test [6] was greater than 50 µM throughout. For the same compound, the TGI in test [7], in test [8], in test [9] and in test [10] was greater than 50 µM throughout.
Take `CCN1C(=O)N[C@H]2[C@@H]3NC(=O)c4ccc(Cl)n4[C@@H]3C[C@]21O`: the GI50 in [1] is 1.66 µM; in test [2] it was 0.257 µM; in test [3], 2.87 µM; in [4] it was 0.615 µM; in test [5] it was 0.369 µM; in test [6] it was 0.333 µM. Also, the GI50 in [7] is 0.607 µM; in test [8], 2.07 µM; in test [9] it was 0.466 µM; in test [10], 3.19 µM. The TGI is 15.6 µM in [1]; 0.983 µM in [2]; greater than 100 µM in test [3]; 19.3 µM in test [4]; 2.57 µM in test [5]; 2.69 µM in test [6]. Also, the TGI came out at 4.79 µM in [7], 7.56 µM in test [8], 3.71 µM in test [9] and 24.1 µM in test [10].
For `CCOC(=O)CC1C(CNC(=O)NC)OC(n2cnc3c(NC(=O)Nc4ccccc4)ncnc32)C1O[Si](C)(C)C(C)(C)C` (stereo not given), the GI50 was 8.5 µM in test [1]; 2.23 µM in [2]; 29.7 µM in [3]; 4.97 µM in [4]; 5.19 µM in [5]; 2.01 µM in test [6]. Besides, the GI50 is greater than 100 µM in test [7], 21 µM in test [8], 8.96 µM in [9] and 12.1 µM in [10]. Besides, the TGI in test [1] is greater than 100 µM; in test [2], 7.07 µM; in [3], greater than 100 µM; in [4], 19.4 µM; in [5], greater than 100 µM; in test [6], 4.63 µM. Further, the TGI in [7] is greater than 100 µM; in test [8], greater than 100 µM; in test [9], 26.4 µM; in test [10], 29.5 µM.
Take `CC(=O)OCCC/C(=C/c1cc2ccccc2c2ccccc12)[N+](=O)[O-]`: the GI50 is 1.3 µM in test [1]; 0.495 µM in test [2]; 1.21 µM in test [3]; 1.26 µM in test [4]; 1.53 µM in [5]; 1.4 µM in test [6]. Moreover, the GI50 is 1.64 µM in test [7], 2.56 µM in test [8], 1.91 µM in test [9] and 1.09 µM in test [10]. Besides, the TGI in test [1] worked out at 2.62 µM; in test [2], 4.58 µM; in [3], 2.51 µM; in [4], 2.51 µM; in test [5], 2.86 µM; in [6], 2.91 µM. Also, the TGI in test [7] turned out to be 3 µM; in test [8], 7.38 µM; in test [9], 3.5 µM; in test [10], 2.3 µM.
For the compound `Fc1cccc(-c2nc(-c3c[nH]c4ncccc34)cs2)c1`, the GI50 in test [1] was greater than 100 µM; in [2] it was greater than 100 µM; in test [3], greater than 100 µM; in test [4], greater than 100 µM; in [5], 70 µM; in test [6], 23.1 µM. Besides, the GI50 in [7] was greater than 100 µM; in test [8], 11.9 µM; in [9] it was 25.7 µM; in test [10], 33.4 µM. For the same compound, the TGI in test [1] was greater than 100 µM; in test [2], greater than 100 µM; in test [3], greater than 100 µM; in test [4] it was greater than 100 µM; in [5], greater than 100 µM; in [6] it was 90.8 µM. The TGI in [7] is greater than 100 µM; in [8] it was 94.3 µM; in test [9], greater than 100 µM; in test [10] it was greater than 100 µM.
With `NC1=C(/C(N)=N/O)C(c2ccccc2)c2ccc3ccccc3c2O1` (stereo not given), the GI50 was 0.226 µM in test [1]; 0.239 µM in test [2]; 0.192 µM in test [3]; 0.463 µM in test [4]; 0.242 µM in [5]; 0.249 µM in test [6]. For the same compound, the GI50 is 0.729 µM in test [7], 0.616 µM in test [8], 0.524 µM in [9] and 0.348 µM in test [10]. Moreover, the TGI is 20.1 µM in [1]; greater than 100 µM in [2]; 42.3 µM in test [3]; greater than 37.2 µM in test [4]; 0.885 µM in [5]; 0.929 µM in [6]. For the same compound, the TGI in [7] is 15.8 µM; in test [8] it was greater than 100 µM; in test [9], greater than 100 µM; in test [10], greater than 84.3 µM.
For the compound `CN1CCN(c2ccc(NC(=O)c3cncnc3Nc3ccc4c(ccn4Cc4cccc(F)c4)c3)cc2)CC1`, the GI50 in [1] is 0.943 µM; in test [2] it was 0.655 µM; in test [3] it was 3.6 µM; in test [4] it was 3.82 µM; in test [5], 1.35 µM; in [6], 0.707 µM. In addition, the GI50 in test [7] is 3.03 µM; in [8], 5.09 µM; in test [9], 3.9 µM; in test [10], 3.8 µM. Further, the TGI in [1] turned out to be 4 µM; in [2], 1.96 µM; in [3] it was 7.75 µM; in test [4], 7.87 µM; in test [5] it was 5.54 µM; in test [6] it was 3.77 µM. Also, the TGI was 7.4 µM in test [7], 9.78 µM in [8], 8.84 µM in test [9] and 7.83 µM in test [10].
In the case of `COc1cc(-c2cn(-c3ccc(F)cc3)c(=O)[nH]2)cc(OC)c1OC`, the GI50 in test [1], in test [2], in test [3], in test [4], in [5] and in test [6] was greater than 100 µM throughout. Further, the GI50 was greater than 100 µM in test [7], greater than 100 µM in test [8], 45 µM in test [9] and greater than 100 µM in test [10]. Besides, the TGI in [1], in test [2], in test [3], in test [4], in test [5] and in [6] was greater than 100 µM in each case. Also, the TGI in test [7], in test [8], in [9] and in test [10] was greater than 100 µM throughout.
Regarding `CCN(CC)CCC(CNc1c(C)cnc2cc(Cl)ccc12)c1ccc(Cl)c(Cl)c1` (stereo not given), the GI50 in test [1] was 2.23 µM; in test [2], 1.93 µM; in [3], 2.59 µM; in test [4] it was 9.2 µM; in [5], 1.77 µM; in [6], 2.86 µM. Further, the GI50 in test [7] was 1.77 µM; in test [8], 14.4 µM; in test [9] it was 4.69 µM; in test [10], 2.59 µM. Besides, the TGI came to 10.8 µM in test [1]; 5.44 µM in test [2]; 11.5 µM in test [3]; 22 µM in [4]; 3.52 µM in [5]; 11.4 µM in [6]. The TGI in test [7] was 3.36 µM; in [8] it was 28 µM; in test [9], 17.6 µM; in test [10], 13.9 µM.
`CCN1Cc2c(/C=C/c3ccccc3)nc3ccc(OC)cc3c2N(c2cccc(Cl)c2)C1`: the GI50 in [1] was 1.74 µM; in test [2], 1.71 µM; in test [3], 1.51 µM; in test [4], 1.94 µM; in [5], 1.98 µM; in [6], 2.07 µM. The GI50 in test [7] is 1.64 µM; in [8], 1.88 µM; in test [9], 1.64 µM; in test [10] it was 1.38 µM. Also, the TGI in [1] was 3.63 µM; in test [2], 5.53 µM; in [3], 3.57 µM; in test [4], 3.47 µM; in [5], 3.91 µM; in test [6] it was 3.69 µM. Further, the TGI in test [7] worked out at 3.14 µM; in [8], 4.4 µM; in test [9], 3.09 µM; in test [10], 2.95 µM.
Take `NCCNc1nc2ccc(F)cc2c2c(=O)c3cc(F)ccc3sc12`: the GI50 in [1] was 1.78 µM; in [2], 1.98 µM; in test [3], 1.08 µM; in [4], 1.9 µM; in [5], 1.76 µM; in test [6], 2.33 µM. The GI50 in test [7] is 1.77 µM; in [8], 5.44 µM; in test [9], 1.39 µM; in test [10] it was 1.34 µM. Further, the TGI turned out to be 3.37 µM in test [1]; 4.91 µM in test [2]; 2.78 µM in test [3]; 3.39 µM in test [4]; 3.25 µM in test [5]; 7.32 µM in test [6]. Moreover, the TGI worked out at 3.44 µM in [7], 20.9 µM in test [8], 2.87 µM in [9] and 11.3 µM in test [10].
As for `Cn1c(=S)c2[nH]c(SCc3cccnc3)nc2n(C)c1=O`, the TGI in [1], in [2], in test [3], in test [4], in test [5] and in [6] was greater than 100 µM in each case. Besides, the TGI in test [7], in test [8], in [9] and in test [10] was greater than 100 µM in each case.
Consider `NC(=O)/C=C/c1c[nH]c2nccnc12`, for which the TGI in test [1] is 55.7 µM; in test [2], greater than 100 µM; in test [3], greater than 100 µM; in [4] it was greater than 34 µM; in [5], 6.15 µM; in [6], 4.17 µM. Moreover, the TGI in test [7] is 5.28 µM; in [8], greater than 100 µM; in test [9], 19.3 µM; in test [10] it was 0.609 µM.
Take `COC(=O)C(Br)(C(=O)OC)C(Br)C(Br)C(Br)c1ccccc1` (stereo not given): the GI50 in test [1] is 2.15 µM; in test [2] it was 2.8 µM; in [3], 1.76 µM; in [4], 2.31 µM; in test [5], 1.81 µM; in test [6], 1.72 µM. The GI50 in test [7] is 17.5 µM; in [8], 16.8 µM; in [9], 6.31 µM; in test [10], 1.64 µM. For the same compound, the TGI in test [1] stood at 6.15 µM; in test [2], 9.71 µM; in test [3], 3.73 µM; in test [4] it was 5.71 µM; in test [5], 4.09 µM; in [6], 3.26 µM. For the same compound, the TGI is 32 µM in test [7], 31.9 µM in test [8], 15.7 µM in [9] and 3.3 µM in [10].
